Laboratory results published in patent US6667327B2, “Pyridine amido derivatives” (Hoffmann-La Roche Inc., priority 2003, dated 2003).

Key:
human MAO-B = target: T1, human MAO-B (Homo sapiens, UniProt P27338); experiment: [3H]Ro 19-6327 binding assay for MAO-B on membranes of transfected EBNA cells; conditions: 20 nM [3H]Ro 19-6327, 1 hour at 25° C., membranes of EBNA cells transfected with human MAO-B
T1 construct: expressed in transfected cells; host or cells: EBNA cells (transient transfection); cell membranes
T1 sequence (P27338 1-520): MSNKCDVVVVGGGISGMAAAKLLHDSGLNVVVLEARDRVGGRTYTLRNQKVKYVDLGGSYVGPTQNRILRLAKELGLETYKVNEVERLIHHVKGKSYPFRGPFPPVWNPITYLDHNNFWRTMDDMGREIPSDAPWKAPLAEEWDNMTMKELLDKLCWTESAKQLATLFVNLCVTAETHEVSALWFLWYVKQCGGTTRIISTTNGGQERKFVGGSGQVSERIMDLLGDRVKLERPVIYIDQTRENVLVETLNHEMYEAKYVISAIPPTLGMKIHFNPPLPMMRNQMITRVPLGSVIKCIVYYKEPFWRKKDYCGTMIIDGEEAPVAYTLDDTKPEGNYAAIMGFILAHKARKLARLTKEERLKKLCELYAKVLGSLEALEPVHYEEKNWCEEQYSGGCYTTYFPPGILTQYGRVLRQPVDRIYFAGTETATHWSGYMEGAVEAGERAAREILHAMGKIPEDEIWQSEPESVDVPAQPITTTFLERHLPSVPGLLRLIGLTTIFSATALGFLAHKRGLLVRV
Description: (§1) The cDNA's encoding human MAO-A and MAO-B were transiently transfected into EBNA cells using the procedure described by E.-J. Schlaeger and K. Christensen (Transient Gene Expression in Mammalian Cells Grown in Serum-free Suspension Culture; Cytotechnology, 15: 1-13, 1998). After transfection, cells were homogeneised by means of a Polytron homogeneiser in 20 mM Tris HCI buffer, pH 8.0, containing 0.5 mM EGTA and 0.5 mM phenylmethanesulfonyl fluoride. Cell membranes were obtained by centrifugation at 45,000×g and, after two rinsing step with 20 mM Tris HCI buffer, pH 8.0, containing 0.5 mM EGTA, membranes were eventually re-suspended in the above buffer and aliquots stored at −80° C. until use.
(§2) MAO-A and MAO-B activities were assayed by [^3H]Ro 41-1049 [tritiated N-(2-aminoethyl)-5-(3-fluorophenyl)-4-thiazole-carboxamide] and [^3H] Ro 19-6327 [tritiated N-(2-aminoethyl)-5-chloro-2-pyridinecarboxamide, [^3H] lazabemide] binding, respectively, following the methods described by Cesura et al. (Characterization of the binding of [^3H]Ro 41-1049 to the active site of monoamine oxidase-A, Molec. Pharmacol. 1990, 37, 358-366; [^3H]Ro 19-6327: a reversible ligand and affinity-labeling probe for monoamine oxidase-B, Eur. J. Pharmacol., 1989, 162, 457-465). Briefly, membrane aliquots were incubated in the presence of 20 nM [^3H]Ro 41-1049 (MAO-A assay) and [^3H]Ro 19-6327 (MAO-B assay) for 1 hour at 37° C. and 25° C., respectively, with or without various concentrations of the compounds, in a final volume of 0.2 ml. The incubation buffer consisted of 50 mM Tris, 130 mM NaCl, 5 mM KCI, 1 mM MgCl2, 0.5 mM EGTA, buffered to pH 7.4 with HCl. The assay was terminated by filtering the samples through GF/C filters (Unifilter-96, Canberra Packard). The radioactivity retained on the filters was eventually counted for radioactivity by means of a Packard Top-Count scintillation counter, after addition of Microscint 40 scintillation fluid (Canberra Packard). Non-specific binding was determined in the presence of 10 μM clorgyline for MAO-A or 10 μM L-deprenyl for MAO-B.
(§3) IC50 values, that is, the concentration of a test compound of formula I required to inhibit the MAO-B enzyme activity by 50%, were determined from inhibition curves obtained using nine inhibitor concentrations in duplicate, by fitting data to a four parameter logistic equation using a computer program.

human MAO-A = target: T2, human MAO-A (Homo sapiens, UniProt P21397); experiment: [3H]Ro 41-1049 binding assay for MAO-A on membranes of transfected EBNA cells; conditions: 20 nM [3H]Ro 41-1049, 1 hour at 37° C., membranes of EBNA cells transfected with human MAO-A
T2 construct: expressed in transfected cells; host or cells: EBNA cells (transient transfection); cell membranes
T2 sequence (P21397 1-527): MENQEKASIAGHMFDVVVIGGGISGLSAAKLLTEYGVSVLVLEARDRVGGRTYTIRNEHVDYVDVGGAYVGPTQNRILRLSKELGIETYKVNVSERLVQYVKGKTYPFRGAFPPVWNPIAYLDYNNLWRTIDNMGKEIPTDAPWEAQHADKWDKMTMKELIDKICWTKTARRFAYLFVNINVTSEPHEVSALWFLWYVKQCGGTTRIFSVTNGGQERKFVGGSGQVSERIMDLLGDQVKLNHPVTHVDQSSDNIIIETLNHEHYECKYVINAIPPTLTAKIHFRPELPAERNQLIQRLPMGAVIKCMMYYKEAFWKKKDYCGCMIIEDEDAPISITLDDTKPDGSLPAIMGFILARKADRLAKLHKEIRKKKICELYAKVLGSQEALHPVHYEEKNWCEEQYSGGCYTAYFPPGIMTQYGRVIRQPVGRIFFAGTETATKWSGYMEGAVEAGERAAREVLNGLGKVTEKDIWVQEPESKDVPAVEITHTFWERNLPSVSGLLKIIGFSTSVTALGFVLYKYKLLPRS
Description: as §1, §2, §3

| Structure (SMILES) | IC50 (human MAO-B) | IC50 (human MAO-A) |
| --- | --- | --- |
| NC(=O)CNC(=O)c1ccc(OCc2ccccc2)nc1 [Example 1, 6-Benzyloxy-N-carbamoylmethyl-nicotinamide] | 0.033 µM | > 10 µM |
| NC(=O)CNC(=O)c1ccc(OCc2cccc(F)c2)nc1 [Example 2, N-Carbamoylmethyl-6-(3-fluoro-benzyloxy)-nicotinamide] | 0.03 µM | 4.15 µM |
| NC(=O)CNC(=O)c1ccc(OCc2cccc(F)c2)cn1 [Example 7, 5-(3-Fluoro-benzyloxy)-pyridine-2-carboxylic Acid Carbamoylmethyl-amide] | 0.028 µM | 9.16 µM |
| NC(=O)CNC(=O)c1ccc(OCc2ccc(F)cc2)cn1 [Example 8, 5-(4-Fluoro-benzyloxy)-pyridine-2-carboxylic Acid Carbamoylmethyl-amide] | 0.03 µM | > 10 µM |
| NC(=O)CNC(=O)c1ccc(OCc2ccc(F)c(F)c2)cn1 [Example 9, 5-(3,4-Difluoro-benzyloxy)-pyridine-2-carboxylic Acid Carbamoylmethyl-amide] | 0.043 µM | > 10 µM |
| C[C@H](NC(=O)c1ccc(OCc2ccc(F)cc2)cn1)C(N)=O [Example 11, (S)-5-(4-Fluoro-benzyloxy)-pyridine-2-carboxylic Acid (1-carbamoyl-ethyl)-amide] | 0.07 µM | > 10 µM |
